The results in this text go back to patent publication US7745424B2, “Alkane diol derivatives as therapeutic agents for the treatment of bone conditions” (The Univeristy Court of the University of Aberdeen, priority 2001, dated 2010).

“Also recorded” adds a separate entry of the source. Where only a bound is given, the exact number is not on record here.

For experiment [1], the system named is macrophage cell line J774. Briefly: MTT macrophage J774 viability assay. As to conditions: MTT assay; for IC50: Mus musculus, macrophage J774 viability; for macrophage J774 viability, activity in words: range of concentrations (FIGS. 4-7). The format is cell-based. As to the method:
MTT (3-(4,5-dimethylthiazol-2-yl)-2,5-diphenyl tetrazolium bromide) has an […] colour and is soluble in the medium used for cell culture. The mitochondrial enzyme succinate dehydrogenase acts upon MTT in living cells to produce the insoluble purple coloured formazan. The amount of formazan produced, as measured by UV/visible spectroscopy, is proportional to the number of viable cells.
The medium was carefully removed using a needle without dislodging the crystal layer. 100 μL acidified isopropanol (4 M HCl 1:100 v/v in isopropanol) was added to each well and the purple crystals allowed to dissolve. The absorbance was measured in a plate reader at 540 nm, with 690 nm as reference. The controls were a deep purple colour, indicating a high number of live cells.
Addition of Compounds. […] These stock solutions were then diluted 100× in culture medium.
A general note: Tetrazolium dyes change colour on reduction, which living cells bring about.

The test system of the next experiment is osteoclasts. Briefly: Murine co-culture system (osteoblast-bone marrow co-culture on dentine). As to conditions: for inhibition of osteoclast formation and activity: murine co-culture system. The format is cell-based, mice. As to the method: The first model system, the murine co-culture system, studies the formation of osteoclasts_from precursors present in the bone marrow. The number of osteoclasts and the amount of dentine resorption was measured.
Osteoclast formation and activity was studied using an adaptation (see, e.g., van't Hof & Ralston, 1997) of the osteoblast-bone marrow co-culture assay originally described by Takahashi et al., 1988.
Co-Culture Methods. Co-culture (see, e.g., Van't Hof et al., 1997) is a method to study the formation of osteoclasts from their precursors. In this assay, osteoblasts were obtained from the calvaria of 2-3 day old neonatal mice. These were plated on dentine, stimulated with 1,25-dihydroxy vitamin D3 to stimulate RANKL and M-CSF expression. Early osteoclast precursors were present in the bone marrow of adult mice. The bone marrow suspension was purified to remove the red blood cells and the remainder cultured on top of the osteoblast layer. The stimulatory factors then allowed the osteoclast precursors to differentiate into mature osteoclasts. At the end of the culture osteoclasts were identified by TRAcP staining and the resorption activity was measured in the same manner as for rabbit osteoclasts.
Preparation of Dentine. The dentine was elephant ivory, preferred to bone because of its uniform surface, which facilitates easy visualisation of resorption pits. It was cut into slices of approximately 200 μm thickness using a Buehler Isomet low speed saw with a diamond wafering blade (series 15 HC). These slices were polished by hand, to a high degree, until one side was shiny. Out of these slices, discs were punched that fit the wells of a 96 well plate, using a paper puncher. Excess residues from the polish were removed by sonication. The discs were then stored in 70% ethanol until required. These discs were then dried and placed shiny side up in the wells of a 96 well plate. Cells were seeded onto the dentine. Following completion of the culture, these dentine slices were carefully removed from the plate and studied under the microscope.
Osteoblast Isolation. Briefly, osteoblasts were isolated from the calvarial bones of 2-day-old mice by sequential collagenase digestion (type I collagenase, Sigma) and cultured in αMEM supplemented with 10% FCS (foetal calf serum) and penicillin and streptomycin at 37° C. in 5% CO2.
More specifically, osteoblasts were obtained from a collagenase digestion of the calvaria (skull bones) of 2-3 day old neo-natal MF1 mice. At this stage in their development these are soft and easily removed. The calvaria from 5-6 mice were carefully dissected and washed in HBSS (Hank's balanced saline solution). The calvaria were placed in a 15 ml tube and shaken at 37° C. in 4 ml collagenase (10 mg/ml) for 10 minutes. This removes the excess unwanted tissue. The liquid was disposed of and a further 4 ml collagenase (10 mg/ml) added to the tube. The calvaria were then digested for a further 30 minutes. After this the supernatant (F1) was removed and retained. The calvaria were washed with a 2×4 ml PBS and this was added to F1. 4 ml EDTA (ethylene diamine tetraacetic acid) (4 mM in PBS) was then added to complex the calcium and allow further extraction of osteoblasts. This was shaken for 10 minutes at 37° C. The supernatant was removed and retained (F2). The calvaria were again washed with 2×4 ml HBSS and this was added to F2. The final 4 ml of collagenase (10 mg/ml) was added to the tube and this was again shaken at 37° C. for 30 minutes. […]

The test system of another experiment is rabbit osteoclasts. The experiment in a line: Rabbit osteoclast culture system. As to conditions: for rabbit osteoclast numbers / resorption activity: rabbit osteoclast culture on dentine. The experiment is classed as cell-based. The source says:
The second model system was the rabbit osteoclast system, where mature, functional osteoclasts were isolated from the long bones of rabbits and cultured on dentine slices.
Osteoclast Isolation. Osteoclasts were isolated from the long bones of 2-10 day-old rabbits, as described previously (see, e.g., reference Coxon et al., 2000). All 4 limbs were removed from the rabbits and placed in ice-cold PBS. Soft tissue and cartilage were removed and the bones transferred into fresh PBS. The bones were minced in aMEM (without FCS), using a scalpel. All the medium and fragments were transferred to a 50 ml tube, vortexed for 3×10 seconds and left to stand for 1 minute. The supernatant was removed and made up to 50 ml/rabbit with medium and FCS so as to give a final concentration of 10% FCS.
Osteoclast Plating. The cells were plated onto dentine slices in a 96 well plate, at 100 μL/well (medium: αMEM supplemented with 10% FCS and penicillin and streptomycin) and left for 4 hours to allow adherence to the dentine. After this period the medium was removed, and with it the non-adherent cells. Fresh medium was then added. The remaining population was highly enriched in osteoclasts.
Culturing. At this point, test compounds to be studied were added and the cells cultured at 37° C. in 5% CO2 for 48 hours. At the end of the culture, the osteoclasts were identified by staining for tartrate-resistant acid phosphatase (TRAcP) staining. A good number of osteoclasts in the controls was 100-200.
The resorption pit area was quantified by reflected light microscopy as described previously (see, e.g., van't Hof & Ralston, 1997) and again the results expressed as a % of the control values.

Experiment [2] deals with macrophage cell line J774. Briefly: Alamar Blue macrophage J774 viability assay. Particulars: Mus musculus, J774, 72 h, read-out: IC50 (μM) Alamar Blue. (In general: Resazurin is reduced to fluorescent resorufin, in cell work by metabolically active cells.)

As a reminder, the IC50 is the midpoint of a concentration-inhibition curve. In experiment [1], `O=C(OCCCCO)c1ccc(-c2ccccc2)cc1` [ABD-0056, 1,4-Butanediol mono(biphenyl-4-carboxylic acid)Ester] registered an IC50 of 3.5 µM. Further, the “number of murine osteoclasts (osteoclast precursors)” value with osteoclasts (compound added at Day 2, removed at Day 4, terminated at Day 10 (FIG. 15)) was “even more effective against osteoclast precursor formation than against mature osteoclasts”. Besides, the “resorption pit area (osteoclast precursors)” value with osteoclasts (compound added at Day 2, removed at Day 4, terminated at Day 10, all concentrations tested (FIG. 16)) is “virtually no resorption”. Further, the “inhibition of osteoclast formation and activity” value (from here on “inhibition”) with osteoclasts is “significantly inhibited; also recorded: potent inhibitor”. Also, the “concentrations showing a significant effect” value with rabbit osteoclasts (osteoclast numbers and resorption activity) is at least 10 µM. Further, in the experiment on rabbit osteoclasts, the rabbit osteoclast numbers entry is “significantly reduced” and the resorption activity result is “significantly reduced”. The IC50 in experiment [2] was 18 µM.

In the case of `O=C(OCCCCCCO)c1ccc(-c2ccccc2)cc1` [ABD-0054, 1,6-Hexanediol mono(biphenyl-4-carboxylic acid)Ester], in experiment [1], the “macrophage J774 viability, activity in words” value (“macrophage J774 viability” for short) is recorded as “next most active” and the 50% inhibitory concentration (IC50) is 35 µM. For the same molecule, the “inhibition” value in the experiment with osteoclasts was “significantly inhibited”. Further, in the experiment with rabbit osteoclasts, the rabbit osteoclast numbers result is recorded as “significantly reduced” and the resorption activity result was “significantly reduced”.

On to `O=C(Cc1ccc(-c2ccccc2)cc1)OCCCCO` [ABD-0042, 1,4-Butanediol mono(biphenyl-4-yl-acetic acid)Ester], for which, in experiment [1], the “macrophage J774 viability” value was “very active” and the IC50 was determined as 45 µM. Besides, the IC50 in experiment [2] turned out to be 45 µM.

With `O=C(OCCCCO)C(c1ccccc1)(c1ccccc1)c1ccccc1` [ABD-0028, 1,4-Butandiol mono(triphenylacetic acid)Ester], in experiment [1], the “macrophage J774 viability” value is recorded as “more potent” and the IC50 is 20 µM. Besides, the IC50 in experiment [2] was determined as 30 µM.

On to `OCCCCO` [1,4-butanediol, reference compound], for which, in the experiment on osteoclasts, the “inhibition” value was “no detected effect”.
